Experimental data: ChEMBL document CHEMBL1132811, “Bisquaternary caracurine V derivatives as allosteric modulators of ligand binding to M2 acetylcholine receptors” (Bioorg Med Chem Lett, 2000)

These compounds were tested against T1, Muscarinic acetylcholine receptor M2 (Sus scrofa, UniProt P06199) (assay: Allosteric inhibition of [3H]NMS (N-methyl-scopolamine) dissociation from porcine cardiac Muscarinic acetylcholine receptor M2).
T1 sequence (P06199 whole entry): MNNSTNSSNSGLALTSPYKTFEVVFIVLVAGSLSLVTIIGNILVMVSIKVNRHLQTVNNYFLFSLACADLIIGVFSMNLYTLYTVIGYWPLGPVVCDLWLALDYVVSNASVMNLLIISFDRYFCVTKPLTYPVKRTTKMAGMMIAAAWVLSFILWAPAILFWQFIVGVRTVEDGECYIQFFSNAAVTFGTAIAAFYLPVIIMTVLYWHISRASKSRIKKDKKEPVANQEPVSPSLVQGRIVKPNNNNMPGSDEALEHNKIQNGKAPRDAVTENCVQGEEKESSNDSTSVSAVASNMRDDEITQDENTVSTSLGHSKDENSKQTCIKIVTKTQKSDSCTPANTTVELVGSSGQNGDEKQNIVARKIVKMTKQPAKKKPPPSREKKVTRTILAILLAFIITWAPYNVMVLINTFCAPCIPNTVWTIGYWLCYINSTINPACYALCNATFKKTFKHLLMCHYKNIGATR

First: C1=C2CN3CCC45c6ccccc6N6[C@@H]7OCC=C8CN9CCC%10%11c%12ccccc%12N([C@H](OC1)[C@@H]([C@H]64)[C@H]2C[C@H]35)[C@H]%10[C@H]7[C@H]8C[C@H]9%11 (some centres not stated)
Second: C[N+]12CCC34c5ccccc5N5[C@@H]6OCC=C7C[N+]8(C)CCC9%10c%11ccccc%11N([C@@H]%11OCC=C(C1)[C@H](C[C@@H]32)[C@@H]%11[C@H]54)[C@H]9[C@H]6[C@H]7C[C@@H]%108 (some centres not stated)
The EC50 of the first is 150-fold higher: 1190 nM for the first, 8 nM for the second.

First: FC(F)(F)c1ccc(C[N+]23CCC45c6ccccc6N6[C@@H]7OCC=C8C[N+]9(Cc%10ccc(C(F)(F)F)cc%10)CCC%10%11c%12ccccc%12N([C@@H]%12OCC=C(C2)[C@H](C[C@@H]43)[C@@H]%12[C@H]65)[C@H]%10[C@H]7[C@H]8C[C@@H]%119)cc1 (some centres not stated)
Second: Brc1ccc(C[N+]23CCC45c6ccccc6N6[C@@H]7OCC=C8C[N+]9(Cc%10ccc(Br)cc%10)CCC%10%11c%12ccccc%12N([C@@H]%12OCC=C(C2)[C@H](C[C@@H]43)[C@@H]%12[C@H]65)[C@H]%10[C@H]7[C@H]8C[C@@H]%119)cc1 (some centres not stated)
The EC50 of the first is 3.5-fold higher: 1750 nM for the first, 507 nM for the second. The second is the more potent here.

Compared with `C=CC[N+]12CCC34c5ccccc5N5[C@@H]6OCC=C7C[N+]8(CC=C)CCC9%10c%11ccccc%11N([C@@H]%11OCC=C(C1)[C@H](C[C@@H]32)[C@@H]%11[C@H]54)[C@H]9[C@H]6[C@H]7C[C@@H]%108` (some centres not stated), `CCC[N+]12CCC34c5ccccc5N5[C@@H]6OCC=C7C[N+]8(CCC)CCC9%10c%11ccccc%11N([C@@H]%11OCC=C(C1)[C@H](C[C@@H]32)[C@@H]%11[C@H]54)[C@H]9[C@H]6[C@H]7C[C@@H]%108` (some centres not stated) is 10-fold higher in EC50: 3 nM for the first, 30 nM for the second.

Compared with `O=C1c2ccccc2C(=O)N1CCC[N+]12CCC34c5ccccc5N5[C@@H]6OCC=C7C[N+]8(CCCN9C(=O)c%10ccccc%10C9=O)CCC9%10c%11ccccc%11N([C@@H]%11OCC=C(C1)[C@H](C[C@@H]32)[C@@H]%11[C@H]54)[C@H]9[C@H]6[C@H]7C[C@@H]%108` (some centres not stated), `C1=C2C[N@+]3(Cc4ccccc4)CC[C@]45c6ccccc6N6[C@@H]7OCC=C8C[N@+]9(Cc%10ccccc%10)CC[C@]%10%11c%12ccccc%12N([C@H](OC1)[C@@H]([C@H]64)[C@H]2C[C@@H]53)[C@H]%10[C@H]7[C@H]8C[C@@H]%119` is 5.4-fold lower in EC50: 376 nM for the first, 69 nM for the second. The second is the more potent here.

Going from `O=[N+]([O-])c1ccc(C[N+]23CCC45c6ccccc6N6[C@@H]7OCC=C8C[N+]9(Cc%10ccc([N+](=O)[O-])cc%10)CCC%10%11c%12ccccc%12N([C@@H]%12OCC=C(C2)[C@H](C[C@@H]43)[C@@H]%12[C@H]65)[C@H]%10[C@H]7[C@H]8C[C@@H]%119)cc1` (some centres not stated) to `C1=C2C[N+]3(Cc4ccc5ccccc5c4)CCC45c6ccccc6N6[C@@H]7OCC=C8C[N+]9(Cc%10ccc%11ccccc%11c%10)CCC%10%11c%12ccccc%12N([C@H](OC1)[C@@H]([C@H]64)[C@H]2C[C@@H]53)[C@H]%10[C@H]7[C@H]8C[C@@H]%119` (some centres not stated), the EC50 rises from 315 nM to 1560 nM (5-fold).

Compared with `COc1ccc(C[N+]23CCC45c6ccccc6N6[C@@H]7OCC=C8C[N+]9(Cc%10ccc(OC)c(OC)c%10)CCC%10%11c%12ccccc%12N([C@@H]%12OCC=C(C2)[C@H](C[C@@H]43)[C@@H]%12[C@H]65)[C@H]%10[C@H]7[C@H]8C[C@@H]%119)cc1OC` (some centres not stated), `C#CC[N+]12CCC34c5ccccc5N5[C@@H]6OCC=C7C[N+]8(CC#C)CCC9%10c%11ccccc%11N([C@@H]%11OCC=C(C1)[C@H](C[C@@H]32)[C@@H]%11[C@H]54)[C@H]9[C@H]6[C@H]7C[C@@H]%108` (some centres not stated) is 86-fold lower in EC50: 342 nM for the first, 4 nM for the second. The second is the more potent here.
